Measured values: patent US9096601B2 (CSPC Zhongqi Pharmaceutical Technology (Shijiazhuang) Co., …, priority 2010, dated 2015)

Tests used:
ALK = ALK (Homo sapiens (Human), UniProt Q9UM73); experiment: Kinase inhibitory activity, isotopic labeling (γ-33P-ATP); type: biochemical; settings: compound at 10 μM
Method: (§1) The object of this assay was to test the inventive compounds for the kinase inhibitory activity in vitro. In this assay, an isotopic labeling method was used to label the γ phosphate group on ATP. EGFR (including wild type, L858R mutant type and L858R/T790M double mutant type), VEGFR2, ALK, BTK, c-KIT, c-SRC, MET, PDGFRα and FLT3 kinases were tested in vitro for the activity inhibition. Staurosporine was used as a reference molecule (or referred to as a positive control). […] The IC50 value can be obtained by the calculation of the inhibitory rates at a series of different concentrations of the tested compounds.
(§2) To a reaction tube were successively added the buffer solution (8 mM MOPS, pH 7.0, 0.2 mM EDTA, 10 mM MnCl2), the kinase to be tested (5-10 mU) (EGFR/ALK/BTK/c-KIT/c-SRC/MET/PDGFRα/VEGFR2), the substrate for the kinase to be tested (a reference material), 10 mM of the solution of magnesium acetate and γ-^33 P-ATP, and different concentrations of the tested compounds. […] The reaction was terminated with […] of the 3% phosphate buffer solution. 10 μL of the reaction liquid was titrated on the Filtermat A membrane. The membrane was washed with 75 mM of the phosphate solution thrice (5 minutes each time), and then with methanol once, and finally dried. The membrane was subjected to a scintillation counting. The value of the scintillation counting reflected the phosphorylation level of the substrate and therefore could characterize the inhibition of the kinase activity.

BTK = BTK (Homo sapiens (Human), UniProt Q06187); experiment: as above; type: biochemical; settings: compound at 10 μM
Method: as §1, §2

FLT3 = FLT3 (Homo sapiens (Human), UniProt P36888); experiment: as above; type: biochemical; settings: compound at 10 μM
Method: as §1, §2

MET = MET (Homo sapiens (Human), UniProt P08581); experiment: as above; type: biochemical; settings: compound at 10 μM
Method: as §1, §2

PDGFRα = PDGFRα (Homo sapiens (Human), UniProt P16234); experiment: as above; type: biochemical; settings: compound at 10 μM
Method: as §1, §2

VEGFR2 = VEGFR2 (Homo sapiens (Human), UniProt P35968); experiment: as above; type: biochemical; settings: ATP 90 μM (Km)
Method: as §1, §2

c-KIT = c-KIT (Homo sapiens (Human), UniProt P10721); experiment: as above; type: biochemical; settings: compound at 10 μM
Method: as §1, §2

c-SRC = c-SRC (Homo sapiens (Human), UniProt P12931); experiment: as above; type: biochemical; settings: compound at 10 μM
Method: as §1, §2

[1] = tested on: non-small cell lung carcinoma cell strain H1975 (EGFR L858R/T790M mutation); experiment: In-vitro tumor cell proliferation inhibition, MTT; type: cell-based, human; settings: 72 hours
Method: (§3) The object of this assay was to test the inventive compounds for the inhibitory activity of in-vitro tumor cell proliferation. The MTT (tetreamethyl-azo-zole-salt) colorimetric method was used in this assay.
(§4) All of the above-mentioned non-small cell lung carcinoma cell strains and the breast carcinoma cell strain BT 474 were cultured with a RPMI-1640 complete culture medium containing 10% fetal bovine serum, 100 U/ml penicillin and 100 μg/ml streptomycin under 5% CO2 and at 37° C. The other cell strains were cultured with a DMEM complete culture medium containing 10% fetal bovine serum (having a MV4-11 cell content of 20%), 100 U/ml penicillin and 100 μg/ml streptomycin under 5% CO2 and 37° C.
(§5) A cell suspension having a cell concentration of 1-2×10^4 cells/ml was treated with a complete cell culture solution to adjust the cell concentration, wherein the cell concentrations for HCC827 and MV4-11 were adjusted to 6×10^4 cells/ml and 1×10^5 cells/ml respectively. The cell suspension was inoculated in a 96-well plate with 200 μl cell suspension/well and cultured overnight. Next day, the supernatant was drawn off and discarded. Then, the cells were treated with the tested compounds in a gradient concentration respectively. In the meanwhile, a negative control group free of the drug substance and an isovolumetric solvent control group (having a DMSO concentration of 1%) were used. The triplicate wells were used for each of dose groups. The culturing was conducted at 37° C. under 5% CO2. After 72 hours, […] having a concentration of 5 mg/ml was added to each of wells. The culturing was further conducted for 2-4 hours. The supernatant was discarded. Then […] was added to each of wells. The contents in the well were mixed homogenously by oscillation for 15 minutes. The absorbance (A) value was measured with a microplate reader at λ=570 nm (the A value is in the direct proportion to the number of living cells) and averaged. The relative cell proliferation inhibitory rate is (A570 control-group−A570 dose-group)/A570 control-group×100%. The assay was repeated for at least three times. The data was expressed as number average. The statistical data were analyzed using t-test. P<0.05 was considered significant. The cell proliferation inhibition of the following compounds was expressed as IC50 or inhibitory rate.

[2] = tested on: non-small cell lung carcinoma cell strain H292 (EGFR WT); experiment: In-vitro tumor cell proliferation inhibition, MTT; type: cell-based, human; settings: 72 hours
Method: as §3, §4, §5

[3] = tested on: non-small cell lung carcinoma cell strain HCC827; experiment: In-vitro tumor cell proliferation inhibition, MTT; type: cell-based, human; settings: 72 hours
Method: as §3, §4, §5

[4] = tested on: non-small cell lung carcinoma cell strain PC-9 (EGFR delE746-A750 deletion mutation); experiment: In-vitro tumor cell proliferation inhibition, MTT; type: cell-based, human; settings: 72 hours
Method: as §3, §4, §5

[5] = tested on: acute myelogenous leukemia cell strain MV4-11; experiment: In-vitro tumor cell proliferation inhibition, MTT; type: cell-based, human; settings: 72 hours
Excerpt: as §3
(§6) Human non-small cell lung carcinoma cell strains HCC827, PC-9, H1975 (EGFR L858R/T790M mutation) and H292 (EGFR WT), and other tumor type cell strains, including human acute myelogenous leukemia cell strain MV4-11, human chronic granulocytic leukemia cell strain K562, human squamous cell carcinoma cell strain A431, human breast carcinoma cell strains MDA-MB-468 and BT 474, human colon cancer cell strains SW480, HCT116 and SW620, human liver cancer cell strain Hep G2, human gastric cancer cell strain MK-45, and human malignant melanoma cell strain A375 used in this assay were all purchased from ATCC company, USA and kept in the laboratory. All of the above-mentioned non-small cell lung carcinoma cell strains and the breast carcinoma cell strain BT 474 were cultured with a RPMI-1640 complete culture medium containing 10% fetal bovine serum, 100 U/ml penicillin and 100 μg/ml streptomycin under 5% CO2 and at 37° C. The other cell strains were cultured with a DMEM complete culture medium containing 10% fetal bovine serum (having a MV4-11 cell content of 20%), 100 U/ml penicillin and 100 μg/ml streptomycin under 5% CO2 and 37° C.
as §5

[6] = tested on: breast carcinoma cell strain BT474; experiment: In-vitro tumor cell proliferation inhibition, MTT; type: cell-based, human; settings: 72 hours
Excerpt: as §3, §6, §5

[7] = tested on: breast carcinoma cell strain MDA-MB-468; experiment: In-vitro tumor cell proliferation inhibition, MTT; type: cell-based, human; settings: 72 hours
Excerpt: as §3, §6, §5

[8] = tested on: chronic granulocytic leukemia cell strain K562; experiment: In-vitro tumor cell proliferation inhibition, MTT; type: cell-based, human; settings: 72 hours
Excerpt: as §3, §6, §5

[9] = tested on: colon cancer cell strain HCT116; experiment: In-vitro tumor cell proliferation inhibition, MTT; type: cell-based, human; settings: 72 hours
Excerpt: as §3, §6, §5

[10] = tested on: colon cancer cell strain SW480; experiment: In-vitro tumor cell proliferation inhibition, MTT; type: cell-based, human; settings: 72 hours
Excerpt: as §3, §6, §5

[11] = tested on: colon cancer cell strain SW620; experiment: In-vitro tumor cell proliferation inhibition, MTT; type: cell-based, human; settings: 72 hours
Excerpt: as §3, §6, §5

[12] = tested on: gastric cancer cell strain MK-45; experiment: In-vitro tumor cell proliferation inhibition, MTT; type: cell-based, human; settings: 72 hours, read-out: MK45 (IC50)
Excerpt: as §3, §6, §5

[13] = tested on: liver cancer cell strain Hep G2; experiment: In-vitro tumor cell proliferation inhibition, MTT; type: cell-based, human; settings: 72 hours, read-out: HEPG2 (IC50)
Excerpt: as §3, §6, §5

[14] = tested on: malignant melanoma cell strain A375; experiment: In-vitro tumor cell proliferation inhibition, MTT; type: cell-based, human; settings: 72 hours
Excerpt: as §3, §6, §5

[15] = tested on: squamous cell carcinoma cell strain A431; experiment: In-vitro tumor cell proliferation inhibition, MTT; type: cell-based, human; settings: 72 hours
Excerpt: as §3, §6, §5

Chain of c-SRC (P12931 whole entry, looked up): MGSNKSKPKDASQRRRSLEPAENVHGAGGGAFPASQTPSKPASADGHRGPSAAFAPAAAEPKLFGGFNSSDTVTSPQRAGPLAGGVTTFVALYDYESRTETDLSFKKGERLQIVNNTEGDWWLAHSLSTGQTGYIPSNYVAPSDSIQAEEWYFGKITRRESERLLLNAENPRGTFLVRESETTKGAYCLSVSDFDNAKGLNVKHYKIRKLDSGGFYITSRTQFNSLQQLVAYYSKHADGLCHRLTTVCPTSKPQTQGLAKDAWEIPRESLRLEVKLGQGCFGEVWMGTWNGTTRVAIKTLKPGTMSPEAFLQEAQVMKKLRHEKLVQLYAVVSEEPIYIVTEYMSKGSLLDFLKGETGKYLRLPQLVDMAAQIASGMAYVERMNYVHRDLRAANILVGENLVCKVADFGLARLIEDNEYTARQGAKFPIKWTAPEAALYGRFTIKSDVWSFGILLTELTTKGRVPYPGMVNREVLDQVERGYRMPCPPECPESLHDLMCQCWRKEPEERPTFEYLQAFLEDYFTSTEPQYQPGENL
Chain of VEGFR2 (P35968 20-1356): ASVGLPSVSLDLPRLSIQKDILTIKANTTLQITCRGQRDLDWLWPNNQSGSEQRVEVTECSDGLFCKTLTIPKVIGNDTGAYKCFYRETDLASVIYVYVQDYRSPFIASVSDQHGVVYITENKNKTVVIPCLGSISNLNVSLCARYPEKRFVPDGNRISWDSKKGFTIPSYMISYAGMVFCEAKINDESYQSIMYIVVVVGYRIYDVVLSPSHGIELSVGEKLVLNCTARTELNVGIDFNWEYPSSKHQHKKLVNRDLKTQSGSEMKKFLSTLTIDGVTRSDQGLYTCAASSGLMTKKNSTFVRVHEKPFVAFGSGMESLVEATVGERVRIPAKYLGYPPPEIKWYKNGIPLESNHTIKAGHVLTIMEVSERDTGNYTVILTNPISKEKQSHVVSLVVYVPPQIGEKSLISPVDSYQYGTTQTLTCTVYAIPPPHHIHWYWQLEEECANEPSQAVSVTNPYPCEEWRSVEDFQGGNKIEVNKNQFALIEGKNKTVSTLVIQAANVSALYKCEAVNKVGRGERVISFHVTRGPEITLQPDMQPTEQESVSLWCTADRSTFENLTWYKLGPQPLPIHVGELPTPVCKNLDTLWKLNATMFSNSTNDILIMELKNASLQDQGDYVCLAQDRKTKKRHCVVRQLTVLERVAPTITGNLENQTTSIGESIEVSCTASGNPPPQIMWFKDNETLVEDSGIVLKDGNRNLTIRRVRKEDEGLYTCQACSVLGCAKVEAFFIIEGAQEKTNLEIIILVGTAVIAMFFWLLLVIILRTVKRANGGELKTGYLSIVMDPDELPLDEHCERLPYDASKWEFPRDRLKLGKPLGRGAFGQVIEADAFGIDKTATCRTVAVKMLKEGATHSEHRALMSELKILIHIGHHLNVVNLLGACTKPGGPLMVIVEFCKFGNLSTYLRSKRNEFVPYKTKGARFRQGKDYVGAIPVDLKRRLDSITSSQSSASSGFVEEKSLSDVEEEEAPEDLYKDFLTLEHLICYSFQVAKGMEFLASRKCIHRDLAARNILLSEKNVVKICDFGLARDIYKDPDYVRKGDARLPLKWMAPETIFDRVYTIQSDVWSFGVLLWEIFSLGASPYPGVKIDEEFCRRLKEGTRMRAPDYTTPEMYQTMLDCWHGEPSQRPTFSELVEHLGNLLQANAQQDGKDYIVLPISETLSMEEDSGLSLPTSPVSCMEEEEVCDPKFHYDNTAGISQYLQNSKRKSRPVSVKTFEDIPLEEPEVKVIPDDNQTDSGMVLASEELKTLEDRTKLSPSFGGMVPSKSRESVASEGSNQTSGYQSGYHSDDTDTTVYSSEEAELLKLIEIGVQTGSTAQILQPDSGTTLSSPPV
Chain of c-KIT (P10721 26-976): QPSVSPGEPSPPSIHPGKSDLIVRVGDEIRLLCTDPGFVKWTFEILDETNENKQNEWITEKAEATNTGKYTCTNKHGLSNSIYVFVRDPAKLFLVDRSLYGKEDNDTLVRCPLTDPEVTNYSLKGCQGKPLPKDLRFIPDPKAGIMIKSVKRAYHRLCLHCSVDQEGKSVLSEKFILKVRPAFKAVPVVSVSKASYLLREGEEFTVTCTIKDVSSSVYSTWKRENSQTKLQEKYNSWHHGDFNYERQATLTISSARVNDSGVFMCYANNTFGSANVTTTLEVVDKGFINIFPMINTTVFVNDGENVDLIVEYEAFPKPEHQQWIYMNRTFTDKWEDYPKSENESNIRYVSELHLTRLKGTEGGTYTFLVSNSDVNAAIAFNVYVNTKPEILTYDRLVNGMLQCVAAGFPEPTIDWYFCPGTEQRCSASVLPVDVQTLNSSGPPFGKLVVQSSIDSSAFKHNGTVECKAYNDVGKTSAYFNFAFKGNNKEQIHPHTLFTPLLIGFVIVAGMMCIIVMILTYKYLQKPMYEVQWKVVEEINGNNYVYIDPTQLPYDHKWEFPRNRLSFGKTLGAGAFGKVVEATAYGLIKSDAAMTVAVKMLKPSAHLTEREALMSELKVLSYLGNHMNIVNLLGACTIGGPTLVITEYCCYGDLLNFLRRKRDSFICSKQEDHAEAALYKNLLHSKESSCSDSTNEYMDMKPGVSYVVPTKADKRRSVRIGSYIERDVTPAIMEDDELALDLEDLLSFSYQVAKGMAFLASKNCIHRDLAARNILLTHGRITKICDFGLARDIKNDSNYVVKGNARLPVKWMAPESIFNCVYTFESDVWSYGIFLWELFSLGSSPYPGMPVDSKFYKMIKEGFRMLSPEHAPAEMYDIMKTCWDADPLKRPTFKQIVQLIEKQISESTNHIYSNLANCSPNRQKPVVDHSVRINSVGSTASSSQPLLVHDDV
Chain of PDGFRα (P16234 24-1089): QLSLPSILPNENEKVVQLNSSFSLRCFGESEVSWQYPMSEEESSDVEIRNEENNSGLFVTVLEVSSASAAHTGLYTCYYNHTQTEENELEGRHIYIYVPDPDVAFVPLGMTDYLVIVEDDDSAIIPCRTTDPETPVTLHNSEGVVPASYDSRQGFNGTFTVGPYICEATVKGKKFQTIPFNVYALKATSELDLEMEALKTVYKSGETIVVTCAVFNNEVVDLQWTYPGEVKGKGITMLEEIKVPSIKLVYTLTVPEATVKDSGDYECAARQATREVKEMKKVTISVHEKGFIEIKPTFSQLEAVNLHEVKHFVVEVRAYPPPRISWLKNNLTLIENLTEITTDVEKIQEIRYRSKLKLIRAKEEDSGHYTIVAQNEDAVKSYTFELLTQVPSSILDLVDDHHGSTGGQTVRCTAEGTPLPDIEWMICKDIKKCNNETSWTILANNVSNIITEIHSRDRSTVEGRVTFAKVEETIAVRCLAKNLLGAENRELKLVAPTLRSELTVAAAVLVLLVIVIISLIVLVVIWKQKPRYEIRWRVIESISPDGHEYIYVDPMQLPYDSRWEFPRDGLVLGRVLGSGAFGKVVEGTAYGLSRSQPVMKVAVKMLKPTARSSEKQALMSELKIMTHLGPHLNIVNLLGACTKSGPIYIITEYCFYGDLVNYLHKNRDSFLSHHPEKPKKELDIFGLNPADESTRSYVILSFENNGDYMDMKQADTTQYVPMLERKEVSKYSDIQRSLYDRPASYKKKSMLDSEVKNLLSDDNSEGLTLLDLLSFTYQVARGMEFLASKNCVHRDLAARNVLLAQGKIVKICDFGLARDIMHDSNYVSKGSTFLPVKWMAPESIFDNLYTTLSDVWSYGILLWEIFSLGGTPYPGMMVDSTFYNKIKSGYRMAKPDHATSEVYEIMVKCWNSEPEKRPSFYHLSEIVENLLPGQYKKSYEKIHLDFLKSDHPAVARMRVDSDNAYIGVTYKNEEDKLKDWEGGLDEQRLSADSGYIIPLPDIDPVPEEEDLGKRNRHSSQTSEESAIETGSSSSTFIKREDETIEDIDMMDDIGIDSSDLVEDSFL
Chain of FLT3 (P36888 27-993): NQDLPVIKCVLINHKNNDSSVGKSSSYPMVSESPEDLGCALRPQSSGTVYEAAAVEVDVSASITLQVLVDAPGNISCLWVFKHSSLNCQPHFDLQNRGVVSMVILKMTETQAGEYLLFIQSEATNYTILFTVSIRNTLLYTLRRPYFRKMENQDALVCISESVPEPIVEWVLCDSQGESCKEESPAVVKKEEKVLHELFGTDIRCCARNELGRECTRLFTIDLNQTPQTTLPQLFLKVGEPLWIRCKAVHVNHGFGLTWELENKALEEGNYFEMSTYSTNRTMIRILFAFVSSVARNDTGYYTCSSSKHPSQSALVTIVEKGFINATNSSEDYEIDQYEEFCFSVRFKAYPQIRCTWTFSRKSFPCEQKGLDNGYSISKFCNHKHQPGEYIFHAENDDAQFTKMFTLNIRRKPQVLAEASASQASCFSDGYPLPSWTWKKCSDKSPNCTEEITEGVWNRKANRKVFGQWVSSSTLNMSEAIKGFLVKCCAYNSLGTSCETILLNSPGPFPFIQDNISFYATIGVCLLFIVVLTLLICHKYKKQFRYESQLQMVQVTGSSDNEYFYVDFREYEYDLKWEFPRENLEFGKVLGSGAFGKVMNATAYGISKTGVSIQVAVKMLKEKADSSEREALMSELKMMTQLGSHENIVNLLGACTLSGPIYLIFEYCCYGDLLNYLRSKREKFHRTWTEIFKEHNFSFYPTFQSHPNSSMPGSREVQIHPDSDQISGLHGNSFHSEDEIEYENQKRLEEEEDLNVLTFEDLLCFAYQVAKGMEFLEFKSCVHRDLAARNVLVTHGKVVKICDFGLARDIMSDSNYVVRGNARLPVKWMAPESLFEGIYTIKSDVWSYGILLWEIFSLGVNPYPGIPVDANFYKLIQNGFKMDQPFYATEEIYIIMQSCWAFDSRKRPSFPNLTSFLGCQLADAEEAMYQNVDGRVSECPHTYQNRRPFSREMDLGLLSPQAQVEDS

Row | Compound | The kinase activity inhibitory rate (%) by the tested compounds at 10 μM ALK (ALK) [%] | The kinase activity inhibitory rate (%) by the tested compounds at 10 μM BTK (BTK) [%] | The kinase activity inhibitory rate (%) by the tested compounds at 10 μM FLT3 (FLT3) [%] | The kinase activity inhibitory rate (%) by the tested compounds at 10 μM MET (MET) [%] | The kinase activity inhibitory rate (%) by the tested compounds at 10 μM PDGFRα (PDGFRα) [%] | IC50 (VEGFR2) [nM] | The kinase activity inhibitory rate (%) by the tested compounds at 10 μM c-KIT (c-KIT) [%] | The kinase activity inhibitory rate (%) by the tested compounds at 10 μM c-SRC (c-SRC) [%] | IC50 [1] [nM] | IC50 [2] [nM] | IC50 [3] [nM] | IC50 [4] [nM] | IC50 [5] [nM] | IC50 [6] [nM] | IC50 [7] [nM] | IC50 [8] [nM] | IC50 [9] [nM] | IC50 [10] [nM] | IC50 [11] [nM] | IC50 [12] [nM] | further results
1 | CC(C)n1c(Nc2ccc(OCc3cccc(F)c3)c(Cl)c2)nc2cnc(Nc3ccc(N4CCN(C)CC4)cc3)nc21 [Compounds 8-19] | 90 | 71 | 43 | 97 | 34 | > 1000 | 12 | 97 | 7320 | 316 | 912 | 459 | 4780 | 4990 | 9980 | 2790 | > 1000 | > 10000 | 1990 | 1010 | IC50 [13]: 5420 nM; IC50 [14]: 1660 nM; IC50 [15]: 9320 nM
2 | CN1CCN(c2ccc(Nc3ncc4nc(Nc5ccccc5)n(C5CCCC5)c4n3)cc2)CC1 [Compounds 8-26] | 71 | 99 | 86 | 86 | 95 | 7 | 94 | 99 | 369 | 10.7 | 1.1 | 0.2 | 93 | 107 | 299 | 120 | 239 | 3440 | 282 | > 1000 | IC50 [13]: 6260 nM; IC50 [14]: 378 nM; IC50 [15]: 1050 nM
